One data set concerns the target human DLK (Homo sapiens (Human), UniProt Q12852). Nature of the data set: DLK Kd determination (KINOMEscan KdELECT, DiscoveRx). Particulars: read-out: Kd. In kind it is binding.
The nature of data set [1]: Metabolic stability in liver microsomes, mouse. The settings on record: CD-1, liver microsomes, 0.5 mg/mL microsomes, NADPH, 45 minutes, 37° C., read-out: Half-life in liver microsomes (t1/2, minutes). It is filed as in vitro ADME, CD-1 mouse. As for the experimental part: (§1) The test compound was incubated with liver microsomes (0.5 mg/mL) from CD-1 mouse, Sprague Dawley rat, Beagle dog, Cynomolgus monkey, and human in the presence of NADPH for 45 minutes at 37° C. The % parent remaining over time was determined by LC-MS/MS, using peak area ratios. Half-life (t1/2) was calculated using the following equation: t1/2=ln2/k, where k is the rate constant of parent decay over time (slope of the plot of log[% parent remaining] versus time).

Data set [2] in a line: Metabolic stability in liver microsomes, rat. It is filed as in vitro ADME. The settings on record: Sprague Dawley, 0.5 mg/mL microsomes, NADPH, 45 minutes, 37° C., read-out: Half-life in liver microsomes (t1/2, minutes). The method, then:
as §1

Data set [3] in a line: Metabolic stability in liver microsomes, dog. Particulars: Beagle, 0.5 mg/mL microsomes, NADPH, 45 minutes, 37° C., read-out: Half-life in liver microsomes (t1/2, minutes). In kind it is in vitro ADME. The method, then: as §1
Data set [4] can be described thus: Metabolic stability in liver microsomes, monkey. It is filed as in vitro ADME, Cynomolgus monkey. Particulars: 0.5 mg/mL microsomes, NADPH, 45 minutes, 37° C., read-out: Half-life in liver microsomes (t1/2, minutes). As for the experimental part:
as §1

Data set [5] is described as follows: Metabolic stability in liver microsomes, human. It is filed as in vitro ADME. The settings on record: 0.5 mg/mL microsomes, NADPH, 45 minutes, 37° C., read-out: Half-life in liver microsomes (t1/2, minutes). The method, then: as §1
The nature of data set [6]: Rat pharmacokinetics, single dose. In kind it is in vivo, Wistar Han rats. Particulars: for clearance / half-life / Vd / AUC(0-t) / Cmax / bioavailability: rat, in vivo, Wistar Han rats; for clearance / half-life / Vd: IV dose 1 mg/kg; for Vd: read-out: Vss; for AUC(0-t) / Cmax / bioavailability: oral dose 3 mg/kg; for clearance in rats, comparison in words / half-life in rats, comparison in words: relative to comparator compound 13. As for the experimental part: Pharmacokinetics for compounds 13, 1a, and 9b were determined using single dosage of Wistar Han rats using techniques that are well known in the art.

Data set [7] in a line: Mouse pharmacokinetics, single dose. It is filed as in vivo, male C57BL/6 mice. Particulars: for Kp / unbound brain-to-plasma ratio (Kp,uu): male, C57BL/6, mouse, brain and plasma, po, 10 mg/kg, based on AUC; for Kp / unbound brain-to-plasma ratio (Kp,uu) / clearance / half-life / Vd / AUC(0-t) / Cmax / bioavailability: male C57BL/6 mice; for Kp / unbound brain-to-plasma ratio (Kp,uu) / AUC(0-t) / Cmax / bioavailability: oral dose 10 mg/kg; for Kp: read-out: Brain/Plasma Ratio; for unbound brain-to-plasma ratio (Kp,uu): read-out: Free Brain/Plasma Ratio; for clearance / half-life / Vd / AUC(0-t) / Cmax / bioavailability: mouse; for clearance / half-life / Vd: in vivo, IV dose 0.3 mg/kg (1a, 4b, 13, 14b, 16; IV dose of 8a, 9b not stated); for Vd: read-out: Vss; for AUC(0-t) / Cmax / bioavailability: plasma; for clearance in mice, comparison in words / half-life in mice, comparison in words: relative to comparator compounds 13 or 14b.

A short description of data set [8]: Metabolic stability in liver microsome preparations, overall comparison. It is filed as in vitro ADME. The settings on record: relative to comparator compounds 13 or 14/14b (WO2018207072). The method, then: as §1

Here are results for three molecules from patent publication US11560366B2, “Bicyclo[1.1.1]pentane inhibitors of dual leucine zipper (DLK) kinase for the treatment of disease” (Board of Regents, The University of Texas System, priority 2019, dated 2023).

human DLK, sequence (Q12852 whole entry): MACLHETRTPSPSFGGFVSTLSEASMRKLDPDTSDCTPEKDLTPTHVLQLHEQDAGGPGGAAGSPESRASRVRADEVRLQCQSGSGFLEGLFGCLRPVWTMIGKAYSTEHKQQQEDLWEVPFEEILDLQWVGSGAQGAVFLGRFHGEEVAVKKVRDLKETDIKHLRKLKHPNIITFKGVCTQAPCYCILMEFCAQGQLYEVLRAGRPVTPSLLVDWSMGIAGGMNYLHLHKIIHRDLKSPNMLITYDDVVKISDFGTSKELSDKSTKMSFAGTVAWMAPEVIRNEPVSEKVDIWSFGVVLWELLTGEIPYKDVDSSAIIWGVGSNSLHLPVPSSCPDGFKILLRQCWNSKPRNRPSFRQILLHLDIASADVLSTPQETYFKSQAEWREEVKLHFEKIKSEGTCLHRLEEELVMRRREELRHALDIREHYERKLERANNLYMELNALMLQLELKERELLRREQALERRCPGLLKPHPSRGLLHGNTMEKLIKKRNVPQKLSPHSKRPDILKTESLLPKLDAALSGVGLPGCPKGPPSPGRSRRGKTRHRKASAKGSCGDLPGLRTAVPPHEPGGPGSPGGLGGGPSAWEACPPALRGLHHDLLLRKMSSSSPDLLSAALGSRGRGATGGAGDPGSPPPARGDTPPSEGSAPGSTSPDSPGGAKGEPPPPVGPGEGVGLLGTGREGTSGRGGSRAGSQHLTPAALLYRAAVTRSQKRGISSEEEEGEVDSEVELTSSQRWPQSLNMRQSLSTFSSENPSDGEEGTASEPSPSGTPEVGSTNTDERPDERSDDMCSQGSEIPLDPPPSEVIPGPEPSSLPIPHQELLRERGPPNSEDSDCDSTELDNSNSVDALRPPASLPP
Protocol for human DLK: The DLK dissociation constants (Kd) have been determined in the KINOMEscan KdELECT Service at DiscoveRx.
A fusion protein of full length of human DLK (amino acids 1-859) and the DNA binding domain of NFkB was expressed in transiently transfected HEK293 cells. From these HEK 293 cells, extracts were prepared in M-PER extraction buffer (Pierce) in the presence of Protease Inhibitor Cocktail Complete (Roche) and Phosphatase Inhibitor Cocktail Set II (Merck) per manufacturers' instructions. The DLK fusion protein was labeled with a chimeric double-stranded DNA tag containing the NFkB binding site (5′-[sequence]-3′, SEQ ID NO:1) fused to an amplicon for qPCR readout, which was added directly to the expression extract (the final concentration of DNA-tag in the binding reaction is 0.1 nM).
The liganded beads were blocked with excess biotin and washed with blocking buffer (SeaBlock (Pierce), 1% BSA, 0.05% Tween 20, 1 mM DTT) to remove unbound ligand and to reduce nonspecific binding.
Extracts were used directly in binding assays without any enzyme purification steps at a >10,000-fold overall stock dilution (final DNA-tagged enzyme concentration <0.1 nM). Extracts were loaded with DNA-tag and diluted into the binding reaction in a two step process. First extracts were diluted 1:100 in 1× binding buffer (PBS/0.05% Tween 20/10 mM DTT/0.1% BSA/2 μg/ml sonicated salmon sperm DNA) containing 10 nM DNA-tag. This dilution was allowed to equilibrate at room temperature for 15 minutes and then subsequently diluted 1:100 in 1× binding buffer. Test compounds were prepared as 111× stocks in 100% DMSO. Kds were determined using an 11-point 3-fold compound dilution series with three DMSO control points. […] The compounds were then diluted directly into the assays such that the final concentration of DMSO was 0.9%. All reactions performed in polypropylene 384-well plates. Each was a final volume of 0.02 mL. Assays were incubated with shaking for 1 hour at room temperature. Then the beads were pelleted and washed with wash buffer (1×PBS, 0.05% Tween 20) to remove displaced kinase and test compound. […] The kinase concentration in the eluates was measured by qPCR. qPCR reactions were assembled by adding 2.5 μL of kinase eluate to 7.5 μL of qPCR master mix containing 0.15 μM amplicon primers and 0.15 μM amplicon probe.
Test compounds were prepared as 111× stocks in 100% DMSO. Kds were determined using an 11-point 3-fold compound dilution series with three DMSO control points. […] The compounds were then diluted directly into the assays such that the final concentration of DMSO was 0.9%. The Kds were determined using a compound top concentration of 30,000 nM. Kd measurements were performed in duplicate.
Binding constants (Kds) were calculated with a standard dose-response curve using the Hill equation:
The Hill Slope was set to −1.

Consider `Nc1ncc(-c2cn(C34CC(F)(C3)C4)c([C@@H](O)C(F)(F)F)n2)cc1OC(F)(F)F` (single isomer, unassigned) [Example 1a], for which the equilibrium dissociation constant (Kd) on human DLK was determined as 2.2 nM. The half-life in data set [1] came to 378 min. In addition, in [2], the half-life is 154 min. For the same molecule, in [3], the half-life stood at 287 min. The half-life in data set [4] was 182 min. In data set [5], the half-life came to 558 min. In data set [6], the clearance came to 5.9 mL/min/kg, the half-life is 11.5 h, the Vd was determined as 4.9 L/kg and the AUC(0-t) turned out to be 16.8 µM·h. Further, in data set [6], the Cmax was 1310 nM; the bioavailability amounted to 103%; the “clearance in rats, comparison in words” value is reported as “reduced clearance”; the “half-life in rats, comparison in words” value is “longer half-life”. In data set [7], the Kp stood at 1.77, the unbound brain-to-plasma ratio (Kp,uu) is 0.92, the clearance was 4.3 mL/min/kg and the half-life is 12.7 h. Also, in data set [7], the Vd came to 4.5 L/kg, the AUC(0-t) is 111 µM·h, the Cmax came out at 6360 nM and the bioavailability came to 154%. In addition, in [7], the “clearance in mice, comparison in words” value is on record as “reduced clearance” and the “half-life in mice, comparison in words” value is on record as “longer half-life”. Further, in data set [8], the “microsomal stability, comparison in words” value (shortened to “microsomal stability”) is recorded as “improvements to microsomal stability”.

As to `CC(C)[C@H](O)c1nc(-c2cnc(N)c(C(F)(F)F)c2)cn1C12CC(F)(C1)C2` (single isomer, unassigned) [Example 4b], the Kd at human DLK was 0.29 nM. For the same molecule, the half-life in data set [1] came out at 71 min. For the same molecule, the half-life in [2] is 30 min. Besides, in data set [3], the half-life was 355 min. The half-life in data set [4] amounted to 22 min. Moreover, the half-life in [5] came out at 213 min. In data set [7], the Kp was 1.72, the unbound brain-to-plasma ratio (Kp,uu) is 1.06, the clearance was 24.5 mL/min/kg and the half-life was 1.86 h. In [7], the Vd turned out to be 3.3 L/kg, the AUC(0-t) amounted to 8.67 µM·h, the Cmax was 5420 nM and the bioavailability was found to be 49.2%. In [7], the “clearance in mice, comparison in words” value is recorded as “reduced clearance” and the “half-life in mice, comparison in words” value is listed as “longer half-life”. Moreover, in data set [8], the “microsomal stability” value is listed as “improvements to microsomal stability”.

Consider `Nc1ncc(-c2cn(C34CC(N5CCC(F)(F)CC5)(C3)C4)c([C@H](O)C(F)(F)F)n2)cc1OC(F)(F)F` (single isomer, unassigned) [Example 9b], for which the Kd at human DLK was 1 nM. For the same molecule, the half-life in data set [1] is 240 min. Besides, in data set [2], the half-life is 581 min. Besides, the half-life in data set [3] was found to be 240 min. Besides, in data set [4], the half-life came out at 331 min. The half-life in data set [5] stood at 297 min. In data set [6], the clearance was 2.8 mL/min/kg, the half-life is 22.7 h, the Vd came out at 4.7 L/kg and the AUC(0-t) was 19.2 µM·h. Further, in data set [6], the highest level (Cmax) was 1050 nM; the bioavailability was 95.9%; the “clearance in rats, comparison in words” value was “reduced clearance”; the “half-life in rats, comparison in words” value was “longer half-life”. In data set [7], the Kp came out at 0.7, the unbound brain-to-plasma ratio (Kp,uu) stood at 0.31, the clearance worked out at 3.9 mL/min/kg and the half-life was 15.9 h. Further, in data set [7], the Vd was found to be 4.8 L/kg, the AUC(0-t) is 39.6 µM·h, the peak level (Cmax) was 2310 nM and the bioavailability was found to be 70.5%. Moreover, in data set [7], the “clearance in mice, comparison in words” value is recorded as “reduced clearance” and the “half-life in mice, comparison in words” value is “longer half-life”. Also, the “microsomal stability” value in [8] is recorded as “improvements to microsomal stability”.
